These results are taken from patent US20050118099A1, “Thiol-mediated drug attachment to targeting peptides” (priority 2003, published 2005).

The test system of one data set is growth hormone. Put plainly: Serum growth hormone levels (ELISA) in IMR-32 mouse xenograft model. To be noted: AE at 75% of the MTD, potential toxicity to the pituitary gland. It counts as in vivo. How it is done:
FIG. 4 is a line graph depicting growth hormone levels in an IMR-32 mouse xenograft model following administration of AE (◯), 1×CP1-FKMMAE (□), or 3×CP1-FKMMAE (⋄). The control sample depicts growth hormone levels in the absence of treatment (X). Arrows indicate the times of administration, as described in Example 5. Serum growth hormone levels were determined by ELISA to assess potential toxicity to the pituitary gland.
(§1) The tumoricidal effects of CP1-FKMMAE were evaluated in a mouse xenograft model. Tumors were established in nude mice by subcutaneous injection of IMR-32 cells. A multiple dose regimen was evaluated based on prior studies using AE, which determined a MTD following four administrations of 0.4 mg/kg. Due to limited availability, AE was used at 75% of the MTD. CP1-FKMMAE was administered at 1× and 3× molar equivalents of AE according to the same dosing schedule. Tumor volume, animal weight, and serum growth hormone levels were assessed for each treatment group.
On the technique in general: ELISA stands for enzyme-linked immunosorbent assay.

Another data set relates to IMR-32 cells. Put plainly: Tumor growth inhibition in IMR-32 mouse xenograft model. As to conditions: AE at 75% of the MTD, multiple dose regimen. It counts as in vivo. How it is done:
(§2) FIGS. 3A-3B are line graphs depicting tumor growth inhibition in an IMR-32 mouse xenograft model following administration of AE (◯), 1×CP1-FKMMAE (□), or 3×CP1-FKMMAE (⋄). The control sample depicts uninhibited tumor growth (X). Arrows indicate the times of administration, as described in Example 5.
as §1

Data set [1] is described as follows: Animal weight in IMR-32 mouse xenograft model. It counts as in vivo. As to conditions: AE at 75% of the MTD. How it is done: as §2, §1
The conditions of data set [2]: following four administrations; prior studies; cited from earlier work.
Data set [3] has as its target human somatostatin receptor SSTR2 of IMR-32 human neuroblastoma cells (human) (UniProt P30874). Put plainly: uptake of applied cpm by SSTR+ human cancer cells, 20-24 h at 37 C, gamma counting.
UniProt P30874, sequence (P30874 whole entry): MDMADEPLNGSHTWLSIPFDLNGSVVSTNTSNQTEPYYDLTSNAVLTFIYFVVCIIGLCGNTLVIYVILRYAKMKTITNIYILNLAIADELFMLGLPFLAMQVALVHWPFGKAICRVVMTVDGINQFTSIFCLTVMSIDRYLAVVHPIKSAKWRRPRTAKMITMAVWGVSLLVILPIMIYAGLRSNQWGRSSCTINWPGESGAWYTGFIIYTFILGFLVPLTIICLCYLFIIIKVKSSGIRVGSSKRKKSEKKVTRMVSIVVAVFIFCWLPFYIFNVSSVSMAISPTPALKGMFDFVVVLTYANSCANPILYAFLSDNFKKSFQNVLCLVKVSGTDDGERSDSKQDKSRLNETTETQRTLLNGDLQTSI
Data set [4] shares this target. Description: uptake of applied cpm by SSTR+ human cancer cells; competitor somatostatin at 1000X molar excess.
For data set [5] the target is unchanged. Description: competition with Indium-111-octreotide on IMR-32 membrane extracts, filter assay, gamma counting.

As for `CC[C@H](C)[C@@H]([C@@H](CC(=O)N1CCC[C@H]1[C@H](OC)[C@@H](C)C(=O)N[C@H](C)[C@@H](O)c1ccccc1)OC)N(C)C(=O)[C@@H](NC(=O)[C@H](C(C)C)N(C)C)C(C)C` [AE, Auristatin E], in the data set with growth hormone, the “Serum growth hormone levels” value was “relative stability”. In addition, the Mean tumor volume entry in the data set on IMR-32 cells is “reduction in mean tumor volume”. For the same molecule, in data set [1], the Mean mouse weight entry was “slightly increased”. For the same molecule, the “MTD (maximal tolerable dose)” value in data set [2] was 0.4 mg/kg.

In data set [3], Indium-111-octreotide (peptide) yielded a Percentage (%) Uptake of 4.4%. The Percentage (%) Uptake in the Presence of 1000X SST in data set [4] turned out to be 0.1%.

In the case of octreotide (unlabeled) (peptide), the IC50 (usually the concentration needed to halve the response being measured) in data set [5] is 3 nM.
